The values below come from publication PMC11009625, “Antibiotic class with potent in vivo activity targeting lipopolysaccharide synthesis in Gram-negative bacteria” (Proceedings of the National Academy of Sciences of the …, 2024).

One may read the ED50 as the dose at which the effect has come halfway, by size or by number of responders. As usually defined, the MIC is the smallest concentration in the dilution series that meets the test's criterion for growth inhibition. As usually defined, the MIC90 is an inhibitory concentration at the 90% level, which refers to growth in some studies and to a panel of isolates in others.

For test [1], the system named is E. coli EC 106-09 (EN122). Description: Neutropenic mouse peritonitis model, E. coli. The format is in vivo, mice. The settings on record: single sc dose, modeled efficacy curves; for ED50: Escherichia coli. Here is the method:
PK and safety studies were done the Latvian Institute for Organic Synthesis (Riga, Latvia) and in vivo efficacy studies were done at Statens Serum Institut (Copenhagen, Denmark). Assays were done in accordance with the relevant permits at the respective sites (SI Appendix). For PK studies, plasma samples were taken from mice dosed subcutaneously and the samples were analyzed by UPLC/MS/MS. For in vivo efficacy studies, neutropenic mice were infected intraperitoneally with 10^6 bacteria and treated with subcutaneously with test compounds 1 h after infection. The mice were euthanized 4 h after treatment and serially diluted samples of blood and peritoneal fluid were plated onto blood agar plates. Complete experimental details available in SI Appendix.
Lantmännen) and water. The experimental procedures were performed in accordance with the guidelines of the European Community and local laws and policies (Directive 2010/63/EU), and all of the procedures were approved by Food and Veterinary Service, Riga, Latvia. […]
Bacterial strains and inoculum. E. coli EC 106-09 (EN122) and K. pneumoniae SSI #3010 (EN124) are clinical isolates from Denmark. Bacterial suspensions for inoculation of mice were prepared […]
at room temperature from fresh overnight cultures on 5% blood agar plates produced by SSI diagnostica (Copenhagen Denmark). The inoculum was prepared immediately before inoculation by suspending colonies in sterile 0.9% saline to an optical density of 0.13 at 540 nm, giving a density of 10^8 CFU/ml and further diluted in 0.9% saline to 2 x 10^6 CFU/ml before injecting into the mice. For each experiment, the size of the inoculum was determined by making ten-fold dilutions in 0.9% saline, of which 20 µl was plated on 5% blood agar plates with subsequent counting of colonies after incubation overnight at 35°C in ambient air.
Mice. Outbred female CD-1 mice 26-30 gram (Envigo, Netherlands) were housed at the animal facility at Statens Serum Institut. The temperature was 22 °C +/- 2 °C and the humidity was 55 +/- 10%. The mice were housed in individually ventilated type 3 macrolone cages with bedding from Tapvei. The air changes per hour were approximately 8-12 times (70-73 times per hours inside cages), and light/dark period was in 12-hours interval of 6 a.m.- 6 p.m./6 p.m – 6 a.m.
The mice had ad libitum access to domestic quality drinking water and food Teklad Global diet 2916C-Envigo) and occasionally peanuts and sunflower seeds (Køge Korn A/S). Further, the animals were offered Enviro-Dri nesting material and cardboard houses (Bio-serv).
Mouse peritonitis model. The mice were rendered neutropenic by injecting 0.5 mL cyclophosphamide solution, 200 mg/kg intraperitoneally at 4 days and 100 mg/kg at 1 day prior to inoculation. 1 h before inoculation, mice were treated orally with […] Nurofen (20 mg ibuprofen/mL corresponding to approximately 30 mg/kg) as a pain relief. Inoculation was performed by intraperitoneal injection of 0.5 ml of the bacterial suspension containing log 6
CFU. The mice were treated subcutaneously with 0.25 – 0.30 mL based on weight, in the neck region with a single dose of compound at 1 hour post inoculation. Mice were monitored for clinical signs of discomfort. 4 h after treatment the mice were anesthetized and blood was collected by heart puncture into EDTA tubes and thereafter mice were euthanized by cervical dislocation and peritoneal washes were performed by injecting 2 ml of sterile saline intraperitoneally, followed by gentle massage of the abdomen and opening the peritoneum to collect fluid. Full blood and peritoneal fluids were serially diluted (ten-fold dilutions) and 20 µl was plated on blood agar plates produced at the SSI diagniostica (Copenhagen, Denmark) with subsequent counting of colonies after incubation overnight at 35°C in ambient. All animal experiments were approved by the National Committee of Animal Ethics – Animal Experiment Inspectorate under the Danish Ministry of Justice.
Statistical analyses. […]

Test [2] concerns clinical MDR K. pneumoniae isolates. Description: MIC, clinical multi-drug resistant K. pneumoniae isolates. The format is cell-based. To be noted: Klebsiella pneumoniae. Here is the method:
(§1) Minimum inhibitory concentration (MIC) values were determined according to the Clinical Laboratory Standards Institute guidelines. Frequency of resistance was determined by plating ~5 × 10^8 bacterial cells on agar-solidified media plates containing test compound at concentrations corresponding to four times the measured solid-media MIC of the strains. Colonies were counted after 24 h, restreaked onto media containing the same concentration of compound, and the MIC remeasured against the assayed compound. Genomic DNA from isolated clones was sequenced by paired-end sequencing on an Illumina MiSeq device. Complete experimental details available in SI Appendix. […]
(§2) Minimum inhibitory concentration (MIC) determination. Broth microdilution and agar dilution MIC assays were conducted according to CLSI guidelines (M07-2012). Appropriate inoculation suspension density was assessed using a Sensititre Nephelometer with a Sensititre 0.5 […]
(§3) McFarland Standard. […]
(§4) To determine the […]
genotype of MDR strains from the ENABLE strain collection, de novo assembled contigs were […]

Test [3] deals with clinical MDR E. coli isolates. Kind of test: MIC, clinical multi-drug resistant E. coli isolates. In kind it is cell-based. The settings on record: Escherichia coli. As to the method: as §1, §2, §3
Whole-genome sequencing and data analysis. Genomic DNA of selected clones was prepared using an Epicentre MasterPure Complete DNA Purification Kit. Whole-genome sequencing libraries were prepared using an Illumina Nextera XT Library Preparation Kit. The libraries were sequenced using an Illumina MiSeq device with a V3 600-cycle reagent kit. Whole-genome sequencing data was analyzed using CLC Genomics Workbench Version 11. To determine the genotype of MDR strains from the ENABLE strain collection, de novo assembled contigs were […]

Test [4] deals with clinical K. pneumoniae isolates (n=104). Kind of test: MIC distribution and MIC90, clinical K. pneumoniae isolates. The format is cell-based. To be noted: Klebsiella pneumoniae; n=104, isolates from Spain, Poland, Denmark and Wales. Here is the method:
as §1, §2, §3, §4
genotype of MDR strains from the ENABLE strain collection, de novo assembled contigs were analyzed using ResFinder (12–14) […]
MIC distribution versus E. coli (n=111)
Clinical Isolates from Spain, Poland, Denmark and Wales
Figure S4. MIC distribution and MIC90 versus clinical E. coli isolates
MIC distribution versus K. pneumoniae (n=104)
Figure S5. MIC distribution and MIC90 versus clinical K. pneumoniae isolates […]

The mark [5] stands for this setting: blood, read-out: ED50, blood, E. coli.
The mark [6] stands for this setting: peritoneal fluid, read-out: ED50, peritoneal fluid, E. coli.
[7] abbreviates: read-out: MIC K. pneumoniae EN0140.
Where [8] appears, read: read-out: MIC K. pneumoniae EN0142.
Setting [9] is: read-out: MIC K. pneumoniae EN0143.
The mark [10] stands for this setting: read-out: MIC K. pneumoniae EN0144.
The mark [11] stands for this setting: read-out: MIC K. pneumoniae EN0145.
[12] abbreviates: read-out: MIC K. pneumoniae EN0233.
The mark [13] stands for this setting: read-out: MIC K. pneumoniae EN0245.
Setting [14] is: read-out: MIC K. pneumoniae EN0504.

Converted amounts (≈) assume the structure as drawn. Read-outs that look alike come from different tables or passages of the source.

Turning to `Cc1cc(C#N)nc(N2CCN(S(=O)(=O)c3ccc(NC(=O)c4cc(CNCCCN)ccc4N(C)S(C)(=O)=O)cc3)CC2)n1.Cl.Cl` [EBL-3599], the ED50 in test [1] (setting [5]) was determined as 20 mg/kg; in test [1] (setting [6]), 29.6 mg/kg. Also, in test [1] (blood), the “1-log effective dose, blood, E. coli” value came out at 28.3 mg/kg. In addition, in test [1] (blood), the “2-log effective dose, blood, E. coli” value amounted to 42.8 mg/kg. In addition, in test [1] (blood), the “3-log effective dose, blood, E. coli” value was found to be 63.4 mg/kg. The “1-log effective dose, peritoneal fluid, E. coli” value in test [1] (peritoneal fluid) is given as 45.9 mg/kg. The “2-log effective dose, peritoneal fluid, E. coli” value in test [1] (peritoneal fluid) is 70.0 mg/kg. The MIC in test [2] (setting [7]) was 1 µg/mL; in test [2] (setting [8]), 2 µg/mL; in test [2] (setting [9]) it was 2 µg/mL; in test [2] (setting [10]) it was 2 µg/mL; in test [2] (setting [11]), 4 µg/mL; in test [2] (setting [12]) it was 4 µg/mL. Also, the MIC in test [2] (setting [13]) turned out to be 8 µg/mL; in test [2] (setting [14]), 4 µg/mL; in test [3] (read-out: MIC E. coli EN0134) it was 2 µg/mL; in test [3] (read-out: MIC E. coli EN0135), 2 µg/mL; in test [3] (read-out: MIC E. coli EN0136) it was 2 µg/mL; in test [3] (read-out: MIC E. coli EN0137), 4 µg/mL. The MIC in test [3] (read-out: MIC E. coli EN0138) stood at 2 µg/mL; in test [3] (read-out: MIC E. coli EN0139) it was 4 µg/mL; in test [3] (read-out: MIC E. coli EN0303), 16 µg/mL; in test [3] (read-out: MIC E. coli EN0481), 2 µg/mL. In test [4], this molecule showed an MIC90 of 8 µg/mL.
As for `Cc1cc(C#N)nc(N2CCN(S(=O)(=O)c3ccc(NC(=O)c4cc(CN5CC(CN)C5)ccc4N(C)S(C)(=O)=O)cc3)CC2)n1` [EBL-3647], the figures for the median effective dose (ED50) in test [1] (setting [5]) and in test [1] (setting [6]) were 12.3 mg/kg and 13.6 mg/kg, respectively. In test [1] (blood), the “1-log effective dose, blood, E. coli” value stood at 14.5 mg/kg. In test [1] (blood), the “2-log effective dose, blood, E. coli” value worked out at 19.6 mg/kg. Besides, the “3-log effective dose, blood, E. coli” value in test [1] (blood) is 27.6 mg/kg. The “1-log effective dose, peritoneal fluid, E. coli” value in test [1] (peritoneal fluid) came to 20.8 mg/kg. For the same molecule, in test [1] (peritoneal fluid), the “2-log effective dose, peritoneal fluid, E. coli” value worked out at 31.2 mg/kg. In addition, the minimum inhibitory concentration (MIC) was 1 µg/mL (≈ 1.5 µM) in test [2] (setting [7]); 2 µg/mL (≈ 2.99 µM) in test [2] (setting [8]); 2 µg/mL (≈ 2.99 µM) in test [2] (setting [9]); 2 µg/mL (≈ 2.99 µM) in test [2] (setting [10]); 4 µg/mL (≈ 5.99 µM) in test [2] (setting [11]); 4 µg/mL (≈ 5.99 µM) in test [2] (setting [12]). For the same molecule, the MIC in test [2] (setting [13]) was found to be 4 µg/mL (≈ 5.99 µM); in test [2] (setting [14]), 4 µg/mL (≈ 5.99 µM); in test [3] (read-out: MIC E. coli EN0134), 2 µg/mL (≈ 2.99 µM); in test [3] (read-out: MIC E. coli EN0135), 2 µg/mL (≈ 2.99 µM); in test [3] (read-out: MIC E. coli EN0136) it was 4 µg/mL (≈ 5.99 µM); in test [3] (read-out: MIC E. coli EN0137), 2 µg/mL (≈ 2.99 µM). The MIC amounted to 4 µg/mL (≈ 5.99 µM) in test [3] (read-out: MIC E. coli EN0138), 4 µg/mL (≈ 5.99 µM) in test [3] (read-out: MIC E. coli EN0139), 16 µg/mL (≈ 24 µM) in test [3] (read-out: MIC E. coli EN0303) and 1 µg/mL (≈ 1.5 µM) in test [3] (read-out: MIC E. coli EN0481). For the same molecule, in test [4], the MIC90 is 8 µg/mL (≈ 12 µM).
